Measured values taken from ChEMBL document CHEMBL5137034, “Chemical space exploration around indolylarylsulfone scaffold led to a novel class of highly active HIV-1 NNRTIs with spiro structural features” (Eur J Med Chem, 2022).
pEC50, pIC50: −log10 of the molar value.

Key:
[1] = system: Human immunodeficiency virus 1; experiment: Antiviral activity against HIV-1 harboring F227L/V106A double mutant infected in human MT4 cells assessed as reduction in virus induced cytotoxicity incubated for 5 to 7 days by MTT assay; format: functional, organism-based; settings: Human immunodeficiency virus 1, MT4
[2] = system: Human immunodeficiency virus 1; experiment: Antiviral activity against wild type HIV-1 3B infected in human MT4 cells assessed as reduction in virus induced cytotoxicity incubated for 5 to 7 days by MTT assay; format: functional, organism-based; settings: Human immunodeficiency virus 1, 3B
[3] = Cytotoxicity against human MT4 cells assessed as reduction in cell viability incubated for 5 to 7 days by MTT assay; format: toxicity, cell-based; settings: time 5-7 day
[4] = Selectivity index, ratio of CC50 for cytotoxicity against human MT4 cells to EC50 for antiviral activity against wildtype HIV-1 3B infected in human MT4 cells; format: toxicity, cell-based; settings: read-out: Ratio CC50/EC50
[5] = system: Human immunodeficiency virus 1; experiment: Antiviral activity against HIV-1 harboring L100I mutant infected in human MT4 cells assessed as reduction in virus induced cytotoxicity incubated for 5 to 7 days by MTT assay; format: functional, organism-based; settings: Human immunodeficiency virus 1, MT4
[6] = system: Human immunodeficiency virus 1; experiment: Antiviral activity against HIV-1 harboring K103N mutant infected in human MT4 cells assessed as reduction in virus induced cytotoxicity incubated for 5 to 7 days by MTT assay; format: functional, organism-based; settings: Human immunodeficiency virus 1, MT4
[7] = system: Human immunodeficiency virus 1; experiment: Antiviral activity against HIV-1 harboring Y181C mutant infected in human MT4 cells assessed as reduction in virus induced cytotoxicity incubated for 5 to 7 days by MTT assay; format: functional, organism-based; settings: Human immunodeficiency virus 1, MT4
[8] = system: Human immunodeficiency virus 1; experiment: Antiviral activity against HIV-1 harboring Y188L mutant infected in human MT4 cells assessed as reduction in virus induced cytotoxicity incubated for 5 to 7 days by MTT assay; format: functional, organism-based; settings: Human immunodeficiency virus 1, MT4
[9] = system: Human immunodeficiency virus 1; experiment: Antiviral activity against HIV-1 harboring E138K mutant infected in human MT4 cells assessed as reduction in virus induced cytotoxicity incubated for 5 to 7 days by MTT assay; format: functional, organism-based; settings: Human immunodeficiency virus 1, MT4
[10] = system: Human immunodeficiency virus 1; experiment: Antiviral activity against HIV-1 RES056 infected in human MT4 cells assessed as reduction in virus induced cytotoxicity incubated for 5 to 7 days by MTT assay; format: functional, organism-based; settings: Human immunodeficiency virus 1, RES056, MT4
[11] = system: Human immunodeficiency virus 1; experiment: Potency index, ratio of Nevirapine EC50 to test compound EC50 for antiviral activity against wild type HIV-1 3B infected in human MT4 cells assessed as reduction in virus induced cytotoxicity incubated for 5 to 7 days by MTT assay; format: functional; settings: time 5-7 day
[12] = system: Human immunodeficiency virus 1; experiment: Potency index, ratio of Zidovudine EC50 to test compound EC50 for antiviral activity against wild type HIV-1 3B infected in human MT4 cells assessed as reduction in virus induced cytotoxicity incubated for 5 to 7 days by MTT assay; format: functional; settings: time 5-7 day
[13] = biological target: Human immunodeficiency virus type 1 reverse transcriptase (Human immunodeficiency virus 1, UniProt Q72547); experiment: Inhibition of wild type HIV-1 reverse transcriptase assessed as reduction of biotin-dUTP incorporation into […] using ABTS as substrate incubated for 1 hrs by ELISA analysis
[14] = system: Human immunodeficiency virus 1; experiment: Potency index, ratio of 5-chloro-3-(m-tolylsulfonyl)-1H-indole-2-carboxamide EC50 to test compound EC50 for antiviral activity against HIV-1 harboring E138K mutant infected in human MT4 cells assessed as reduction in virus induced cytotoxicity incubated for 5 to 7 days by MTT assay; format: functional; settings: time 5-7 day

SMILES: Cc1cc(C)cc(S(=O)(=O)c2c(C(=O)NC3CC4(CCN(Cc5n[nH]c(=O)n5C)C4)C3)[nH]c3ccc(Cl)cc23)c1 (centres undefined)
- pEC50 [1]: 6.57
- pEC50 [2]: 8.00
- CC50 [3]: > 214 µM
- selectivity ratio [4]: > 21600
- pEC50 [5]: 7.24
- pEC50 [6]: 6.85
- pEC50 [7]: 6.68
- pEC50 [8]: 5.84
- pEC50 [9]: 7.35
- pEC50 [10]: 3.88
- Ratio EC50 [11]: 16
- Ratio EC50 [12]: 2

SMILES: Cc1cc(C#N)cc(C)c1Oc1nc(Nc2ccc(C#N)cc2)nc(N)c1Br [ETRAVIRINE]
- pEC50 [1]: 7.80
- CC50 [3]: > 4.59 µM
- selectivity ratio [4]: > 1570
- pEC50 [5]: 8.05
- pEC50 [8]: 7.82
- pEC50 [10]: 7.46

SMILES: Cc1cc(C)cc(S(=O)(=O)c2c(C(=O)NC3CC4(CCNC4)C3)[nH]c3ccc(Cl)cc23)c1 (centres undefined)
- pEC50 [2]: 7.42
- CC50 [3]: 25.2 µM
- selectivity ratio [4]: 664

SMILES: Cc1cc(C)cc(S(=O)(=O)c2c(C(=O)NC3CC4(CCN(S(C)(=O)=O)CC4)C3)[nH]c3ccc(Cl)cc23)c1
- pEC50 [1]: 5.89
- pEC50 [2]: 7.68
- CC50 [3]: > 222 µM
- selectivity ratio [4]: > 10300
- pEC50 [5]: 6.60
- pEC50 [6]: 6.36
- pEC50 [7]: 6.01
- pEC50 [8]: < 3.72
- pEC50 [9]: 7.00
- pEC50 [10]: < 3.65

SMILES: Cc1cc(C)cc(S(=O)(=O)c2c(C(=O)NC3CC4(C3)CN(C(=O)OC(C)(C)C)C4)[nH]c3ccc(Cl)cc23)c1
- pEC50 [2]: 7.15
- CC50 [3]: > 224 µM
- selectivity ratio [4]: > 3220

SMILES: Cc1cc(C)cc(S(=O)(=O)c2c(C(=O)NC3CC4(CNC4)C3)[nH]c3ccc(Cl)cc23)c1
- pEC50 [2]: 7.39
- CC50 [3]: 28.6 µM
- selectivity ratio [4]: 676

SMILES: Cc1cc(C)cc(S(=O)(=O)c2c(C(=O)NC3CC4(CCN(C(=O)OC(C)(C)C)CC4)C3)[nH]c3ccc(Cl)cc23)c1
- pEC50 [2]: 6.72
- CC50 [3]: 133 µM
- selectivity ratio [4]: 685

SMILES: Cc1cc(C)cc(S(=O)(=O)c2c(C(=O)NC3CC4(CCN(CC(N)=O)C4)C3)[nH]c3ccc(Cl)cc23)c1 (centres undefined)
- pEC50 [1]: 6.38
- pEC50 [2]: 7.96
- CC50 [3]: 3.7 µM
- selectivity ratio [4]: 328
- pEC50 [5]: 6.89
- pEC50 [6]: 6.72
- pEC50 [7]: 6.38
- pEC50 [8]: 5.85
- pEC50 [9]: 7.14
- pEC50 [10]: < 5.43
- pIC50 [13]: 6.89

SMILES: Cc1ccnc2c1NC(=O)c1cccnc1N2C1CC1 [NEVIRAPINE]
- pEC50 [1]: 5.45
- CC50 [3]: > 15 µM
- pEC50 [6]: 5.45
- pEC50 [7]: 5.42
- pEC50 [8]: 5.35
- pEC50 [9]: 6.80
- pEC50 [10]: 5.65

SMILES: Cc1cc(C)cc(S(=O)(=O)c2c(C(=O)NC3CC4(CCNCC4)C3)[nH]c3ccc(Cl)cc23)c1
- pEC50 [2]: 7.31
- CC50 [3]: 24.2 µM
- selectivity ratio [4]: 493

SMILES: Cc1cc(C)cc(S(=O)(=O)c2c(C(N)=O)[nH]c3ccc(Cl)cc23)c1
- pEC50 [1]: 7.33
- pEC50 [2]: 8.39
- selectivity ratio [4]: 2160
- pEC50 [5]: 7.82
- pEC50 [6]: 7.77
- pEC50 [7]: 7.41
- pEC50 [8]: 5.96
- pEC50 [9]: 6.05
- pEC50 [10]: 5.74
- pIC50 [13]: 7.82

SMILES: Cc1cc(C)cc(S(=O)(=O)c2c(C(=O)NC3CC4(CCN(S(C)(=O)=O)C4)C3)[nH]c3ccc(Cl)cc23)c1 (centres undefined)
- pEC50 [1]: 6.22
- pEC50 [2]: 7.92
- CC50 [3]: 205 µM
- selectivity ratio [4]: 16500
- pEC50 [5]: 6.96
- pEC50 [6]: 6.48
- pEC50 [7]: 6.48
- pEC50 [8]: 5.71
- pEC50 [9]: 7.16
- pEC50 [10]: < 3.69

SMILES: Cc1cc(C)cc(S(=O)(=O)c2c(C(=O)NC3CC4(C3)CN(CC(N)=O)C4)[nH]c3ccc(Cl)cc23)c1
- pEC50 [1]: 6.30
- pEC50 [2]: 7.96
- CC50 [3]: 6.08 µM
- selectivity ratio [4]: 526
- pEC50 [5]: 7.00
- pEC50 [6]: 6.85
- pEC50 [7]: 6.41
- pEC50 [8]: 5.89
- pEC50 [9]: 7.13
- pEC50 [10]: ≤ 5.24

SMILES: O=C1Nc2ccc(Cl)cc2[C@@](C#CC2CC2)(C(F)(F)F)O1 [EFAVIRENZ]
- pEC50 [2]: 8.49
- CC50 [3]: > 6.33 µM
- pEC50 [6]: 7.01
- pEC50 [8]: 7.05
- pEC50 [10]: 6.98

SMILES: Cc1cc(C)cc(S(=O)(=O)c2c(C(=O)NC3CC4(CCN(C(=O)OC(C)(C)C)C4)C3)[nH]c3ccc(Cl)cc23)c1 (centres undefined)
- pEC50 [2]: 6.92
- CC50 [3]: 171 µM
- selectivity ratio [4]: 1470

SMILES: Cc1cc(C)cc(S(=O)(=O)c2c(C(=O)NC3CC4(C3)CN(S(C)(=O)=O)C4)[nH]c3ccc(Cl)cc23)c1
- pEC50 [1]: 6.39
- pEC50 [2]: 7.96
- CC50 [3]: > 233 µM
- selectivity ratio [4]: > 20900
- pEC50 [5]: 6.92
- pEC50 [6]: 6.68
- pEC50 [7]: 6.33
- pEC50 [8]: 5.75
- pEC50 [9]: 6.96
- pEC50 [10]: ≤ 4.89
- pIC50 [13]: 6.92

SMILES: Cc1cc(C)cc(S(=O)(=O)c2c(C(=O)NC3CC4(C3)CN(Cc3n[nH]c(=O)n3C)C4)[nH]c3ccc(Cl)cc23)c1
- pEC50 [1]: 6.64
- pEC50 [2]: 8.28
- CC50 [3]: 65.6 µM
- selectivity ratio [4]: 12400
- pEC50 [5]: 7.33
- pEC50 [6]: 7.25
- pEC50 [7]: 6.60
- pEC50 [8]: 6.25
- pEC50 [9]: 7.40
- pEC50 [10]: 5.13
- pIC50 [13]: 6.77
- Ratio EC50 [11]: 30
- Ratio EC50 [12]: 4
- Ratio EC50 [14]: 23

SMILES: Cc1cc(C)cc(S(=O)(=O)c2c(C(=O)NC3CC4(CCN(CC(N)=O)CC4)C3)[nH]c3ccc(Cl)cc23)c1
- pEC50 [1]: 6.32
- pEC50 [2]: 8.01
- CC50 [3]: 3.61 µM
- selectivity ratio [4]: 367
- pEC50 [5]: 6.74
- pEC50 [6]: 6.82
- pEC50 [7]: 6.07
- pEC50 [8]: 5.89
- pEC50 [9]: 6.70
- pEC50 [10]: < 5.44

SMILES: Cc1cn([C@H]2C[C@H](N=[N+]=[N-])[C@@H](CO)O2)c(=O)[nH]c1=O [ZIDOVUDINE]
- pEC50 [1]: 8.40
- pEC50 [2]: 7.68
- CC50 [3]: > 7.48 µM
- selectivity ratio [4]: > 352
- pEC50 [5]: 8.30
- pEC50 [7]: 8.30
- pEC50 [8]: 8.40
- pEC50 [9]: 8.15
- pEC50 [10]: 8.00

SMILES: Cc1cc(C)cc(S(=O)(=O)c2c(C(=O)NC3CC4(CCN(Cc5n[nH]c(=O)n5C)CC4)C3)[nH]c3ccc(Cl)cc23)c1
- pEC50 [1]: 5.85
- pEC50 [2]: 7.66
- CC50 [3]: 178 µM
- selectivity ratio [4]: 8350
- pEC50 [5]: 6.57
- pEC50 [6]: 6.24
- pEC50 [7]: 6.03
- pEC50 [8]: 5.09
- pEC50 [9]: 6.77
- pEC50 [10]: < 3.75
